Patent US5340811A, “Isoquinoline-or quinoline-sulfonamide derivative and a pharmaceutical composition comprising the same” (priority 1990, dated 1994)
Counter-ions that a name gives are not always drawn.

Key:
[1] = known from literature/patents; cited from earlier work
[2] = known from literature/patents; cited from earlier work; remark: listed apart in the source
trachea of a guinea pig = assay: Effect on trachea in vivo: inhibition of histamine-induced tracheal contraction (modified Konzett-Rossler method); conditions: for suppression of histamine-induced bronchial contraction: contraction induced by intravenous administration of 1 mg/kg of histamine (as printed in text); for inhibition in vivo at 1 mg/kg: Cavia porcellus, iv, 0.05 h, compound 1 mg/kg via femoral vein, histamine 20 μg/kg i.v. after 3 minutes, urethane anesthesia, n=3, non-salt compounds used as hydrochloride
Text: According to a modified method of Konzett-Rossler method [see J. Martinez et al, Bronchial Arterial Injections, vol. […] Urethane was intraperitoneally administered to male guinea pigs weighing 350 to 600 g (Hartley strain, Kuroda Junkei Dobutsu) in an amount of 1.5 g/kg of body weight to anesthetize the animals. Then, cannulae were inserted into the trachea and femoral vein of each animal under urethane anesthesia and fixed. […] Each of the above-mentioned compounds of the present invention was administered to guinea pigs through the femoral vein in an amount of 1 mg/kg of body weight. […] As a solvent for each compound, physiological saline was used. The number of the guinea pigs tested in each group was 3.

[3] = test system: tracheal specimens excised from guinea pigs; assay: Inhibitory effect on KCl-induced contraction of tracheal specimens excised from guinea pigs; format: cell-based, guinea pig; conditions: Cavia porcellus; dose relaxing KCl (20 mM)-induced contraction to 50%; 37° C.; n=3; non-salt compounds used as hydrochloride; read-out: ED50 (KCl-induced contraction)
Text: According to a method in which tracheal specimens excised from guinea pigs were used (Takagi and Ozawa, "Yakubutsugaku Jikken (Experiments in Pharmacology)", pp.100-102, 1960, published by Nanzando Japan; and Fujiwara and Shibata, "Yakurigaku Kiso Jikenho (Methods of Fundamental Experiments in Pharmacology)" pp.131-134, 1982, published by Kyourin, Japan), relaxing effect of sulfonamide derivatives of the present invention on bronchial smooth muscle was examined. […] After the KCl-induced contraction became stable, each of the compounds of the present invention was dissolved in distilled water or physiological saline, and the compound solution was cumulatively added into the Magnus tube. The relaxing effect of each of the compounds of the present invention on contracted tracheal specimens was evaluated and a dose-response curve was obtained. A dose required for relaxing KCl-induced contraction to 50%, i.e., ED50 was calculated from the dose-response curve. […] The number of tracheal specimens in each group was 3.

[4] = test system: tracheal specimens excised from guinea pigs; assay: Inhibitory effect on PGF2α-induced contraction of tracheal specimens excised from guinea pigs; format: cell-based, guinea pig; conditions: Cavia porcellus; dose relaxing PGF2α (final 1 μm)-induced contraction to 50%; n=3; non-salt compounds used as hydrochloride; read-out: PGF2α-induced contraction ED50 (Table 18)
Description: Tracheal specimens excised from male guinea pigs weighing 350 to 500 g (Hartley strain, Kuroda Junkei Dobutsu) were contracted in substantially the same manner as in Application Example 1 except that PGF2α (final concentration: 1 μm) was used instead of KCl. After the contraction of the tracheal specimens became stable, each of the compounds (hydrochloride) of the present invention was dissolved in distilled water or physiological saline, and the compound solution was cumulatively added into the Magnus tube in the same manner as in Application Example 1. The relaxing effect of each of the compounds of the present invention on the contracted specimens was evaluated and a dose-response curve was obtained. The dose required for relaxing PGF2α-induced contraction to 50%, i.e., ED50 was calculated form the dose-response curve. […] For comparison, the same procedure as described above was repeated except that aminophylline, comparative compound (1) and comparative compound (2) were individually used instead of the compound of the present invention, to obtain an ED50. The number of specimens in each group was 3.

N=C(N)NCCNS(=O)(=O)c1cccc2cnccc12 [N-(2-guanidinoethyl)-5-isoquinolinesulfonamide]
bronchodilating activity [1]: bronchodilating activity | vasodilating activity [2]: vasodiletic activity

O=S(=O)(NCCNCc1ccc2c(c1)OCO2)c1cccc2cnccc12 [(3), N-[2(3,4-methylenedioxybenzylamino)ethyl]-5-isoquinolinesulfonamide]
suppression of histamine-induced bronchial contraction (trachea of a guinea pig): 36%

CCCCCCN(CCN)S(=O)(=O)c1cccc2cnccc12.Cl [Comparative compound (1), N-(2-aminoethyl)-N-hexyl-5-isoquinolinesulfonamide hydrochloride]
suppression of histamine-induced bronchial contraction (trachea of a guinea pig): 9%

Cl.NC1CCCN(S(=O)(=O)c2cccc3cnccc23)C1 (stereo not shown) [Comparative compound (2), 1-(5-isoquinolinesulfonyl)-3-aminopiperidine hydrochloride]
suppression of histamine-induced bronchial contraction (trachea of a guinea pig): 12%

O=S(=O)(NCCN1CCCN(Cc2ccc3c(c2)OCO3)CC1)c1cccc2c(O)nccc12 [(35), hydrochloride]
EC50 [3]: 18 µM

O=S(=O)(NCCN1CCN(Cc2ccc3c(c2)OCO3)CC1)c1cccc2cnccc12 [(30), 1-(5-isoquinolinesulfonylaminoethyl)-4-(3,4-methylenedioxybenzyl)piperazine]
inhibition in vivo at 1 mg/kg (trachea of a guinea pig): 31%

O=S(=O)(NCCN1CCCN(Cc2ccc3c(c2)OCO3)CC1)c1ccc(Cl)c2ncccc12 [(38), 1-(8-chloro-5-quinolinesulfonylaminoethyl)-4-(3,4-methylenedioxybenzyl)homopiperazine]
inhibition in vivo at 1 mg/kg (trachea of a guinea pig): 45% | suppression of histamine-induced bronchial contraction (trachea of a guinea pig): 45%

O=S(=O)(NCCN1CCCNCC1)c1cccc2c(O)nccc12 [(33), 1-(1-hydroxy-5-isoquinolinesulfonylaminoethyl) homopiperazine hydrochloride]
EC50 [3]: 24 µM

O=S(=O)(NCCN1CCNCC1)c1cccc2c(O)nccc12 [(32), 1-(1-hydroxy-5-isoquinolinesulfonylaminoethyl) piperazine hydrochloride]
EC50 [3]: 27 µM

O=S(=O)(NCCN1CCCN(Cc2ccc3c(c2)OCO3)CC1)c1cccc2cnccc12 [(31), 1-(5-isoquinolinesulfonylaminoethyl)-4-(3,4-methylenedioxybenzyl)homopiperazine]
inhibition in vivo at 1 mg/kg (trachea of a guinea pig): 35%

O=S(=O)(NCCN1CCCNCC1)c1ccc(Cl)c2ncccc12 [(36), 1-(8-chloro-5-quinolinesulfonylaminoethyl)homopiperazine]
inhibition in vivo at 1 mg/kg (trachea of a guinea pig): 22%

Cn1c(=O)c2[nH]cnc2n(C)c1=O [Aminophylline, aminophylline]
EC50 [4]: ≥ 200 µM | suppression of histamine-induced bronchial contraction (trachea of a guinea pig): 7%

CCCCCCN(CCN)S(=O)(=O)c1cccc2cnccc12 [N-(2-aminoethyl)-N-hexyl-5-isoquinolinesulfonamide]
bronchodilating activity [1]: bronchodilating activity | vasodilating activity [2]: vasodiletic activity

NC1CCCN(S(=O)(=O)c2cccc3cnccc23)C1 (stereo not shown) [1-(5-isoquinolinesulfonyl)-3-aminopiperidine]
bronchodilating activity [1]: bronchodilating activity | vasodilating activity [2]: vasodiletic activity
